From patent publication US7169750B2, “Methods to mobilize progenitor/stem cells” (Anormed, Inc., priority 2001, dated 2007)
Like-named read-outs stand apart in the source and are kept apart here.

Assays:
[1] = test system: progenitors in DNA synthesis (S) phase; conditions: prior to and 1, 3, 6, 9 and 24 hours after injection
Description: For the progenitor cell numbers and cycling status, the numbers of CFU-GM, BFU-E and CFU-GEMM in methylcellulose cultures by stimulation of the cells with 1 Unit (U)/ml recombinant human (rhu) erythropoietin, 100 U/ml rhu granulocyte-macrophage colony stimulating factor (GM-CSF), 100 U/ml rhu interleukin-3 (IL-3) and 50 ng/ml rhu steel factor (SLF=stem cell factor (SCF)). […] For both types of assays, colonies were scored after 14 day incubation in a humidified atmosphere with 5% CO2 and lowered (5%) O2 tension. Cell cycling status of progenitors was measured using a high specific activity tritiated thymidine kill technique as previously described (Broxmeyer, H. E., et al., Exp. Hematol. (1989) 17:455–459).

[2] = target: CXCR4 chemokine receptor (Homo sapiens, UniProt P61073); conditions: Gerlach, et al., J.Biol. Chem. (2001); cited from earlier work
[3] = test system: granulocyte macrophage (CFU-GM), erythroid (BFU-E), and multipotential (CFU-GEMM) progenitor cells
Description: (§1) Five healthy human volunteers having initial white blood cell counts of 4,500–7,500 cells/mm^3 were used in the study. […] Blood samples were obtained via catheter prior to the dose, and at various times up to 24 hours after dosing.
(§2) All progenitor cell results are based on the scoring of 3 culture plates per assay per point.
(§3) For the progenitor cell numbers and cycling status, the numbers of CFU-GM, BFU-E and CFU-GEMM in methylcellulose cultures by stimulation of the cells with 1 Unit (U)/ml recombinant human (rhu) erythropoietin, 100 U/ml rhu granulocyte-macrophage colony stimulating factor (GM-CSF), 100 U/ml rhu interleukin-3 (IL-3) and 50 ng/ml rhu steel factor (SLF=stem cell factor (SCF)). The CFU-GM were also evaluated in agar cultures stimulated with 100 U/ml rhu GM-CSF and 50 ng/ml rhu SLF. For both types of assays, colonies were scored after 14 day incubation in a humidified atmosphere with 5% CO2 and lowered (5%) O2 tension. Cell cycling status of progenitors was measured using a high specific activity tritiated thymidine kill technique as previously described (Broxmeyer, H. E., et al., Exp. Hematol. (1989) 17:455–459).

[4] = test system: CFU-GM; conditions: 80 μg/kg s.c.
Description: as §1, §2, §3

[5] = test system: progenitor cells; conditions: AMD3100 5 mg/Kg s.c. + MIP-1α 5 μg I.V., 11 hours after rhu G-CSF or saline, 1 hour prior to assessing the blood
Description: Groups of mice were randomized to receive control diluent (saline) or G-CSF at a dose of 2.5 μg per mouse, twice a day, for two days via s.c. injection. […] One hour later, the mice were sacrificed and the number of progenitor cells per mL of blood were measured.

[6] = test system: nucleated cells; conditions: T = 3 h; average of 5 donors; 80 μg/kg s.c.
[7] = test system: circulating CD34+ progenitor/stem cells; conditions: single dose of 80 μg/kg; 6 hour time point; Phase 1 study (Liles, et al.); cited from earlier work
[8] = test system: rats with ligated left coronary artery; conditions: administered within hours after induction of cardiac ischemia, with or without rhG-CSF
Description: Adult rats are anesthetized and a thoracotomy is performed. The descending branch of the left coronary artery is ligated and not reperfused. […] Control rats are not treated with the reagents. The animals are monitored at one-week intervals by echocardiography and MRI. The experiment is terminated at 2, 6 to 12 weeks post-surgery. On the day of sacrifice, the hemodynamic functions are analyzed for left ventricle-end diastolic pressure, left ventricle-developed pressure and the rate of rise and fall of left ventricle pressure. The heart is then arrested in diastole and perfuised via the abdominal aorta to flush residual blood from the vascular network of the myocardium. This is followed by perfusion of the heart with 10% formalin. Several slices are made through the fixed heart and these are embedded in paraffin and sections. The sections are stained and analyzed by light microscopy to determine the size of the infarct in the treated and control animals. Tissue sections from hearts taken at 2 weeks after surgery are stained with antibodies specific for immature, developing myocyte and blood vessel proteins and analyzed by confocal microscopy. The immunohistochemical analysis involves the identification of transcription factors and surface markers expressed in early stages of myocyte development.

[9] = test system: WBC; conditions: single dose of 80 μg/kg; Phase 1 study (Liles, et al.); cited from earlier work

Sequence of CXCR4 chemokine receptor (P61073 whole entry): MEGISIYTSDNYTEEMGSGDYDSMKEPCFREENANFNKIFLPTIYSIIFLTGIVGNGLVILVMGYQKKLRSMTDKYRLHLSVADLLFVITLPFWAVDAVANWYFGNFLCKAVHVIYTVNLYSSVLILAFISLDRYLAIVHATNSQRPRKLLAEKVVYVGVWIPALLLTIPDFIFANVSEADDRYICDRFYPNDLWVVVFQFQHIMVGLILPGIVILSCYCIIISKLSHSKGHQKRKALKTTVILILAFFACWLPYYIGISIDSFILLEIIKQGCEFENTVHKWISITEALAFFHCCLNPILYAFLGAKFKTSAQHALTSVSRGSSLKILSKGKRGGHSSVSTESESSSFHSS

SMILES: c1cc(CN2CCCNCCNCCCNCC2)ccc1CN1CCCNCCNCCCNCC1 [AMD3100, 1,1′-[1,4-phenylene-bis(methylene)]-bis-1,4,8,11-tetraazacyclotetradecane]
- cycling state of progenitors [1]: slow or non-cycling state
- action at the CXCR4 chemokine receptor [2]: antagonist
- CFU-GEMM methylcellulose culture fold change from T=0 ([3]; P1, T = 1 h, 80 μg/kg s.c.): 2.07 fold
- CFU-GEMM methylcellulose culture fold change from T=0 ([3]; P1, T = 24 h, 80 μg/kg s.c.): 1.12 fold
- CFU-GM methylcellulose culture fold change from T=0 ([3]; P1, T = 24 h, 80 μg/kg s.c.): 1.10 fold
- BFU-E methylcellulose culture fold change from T=0 ([3]; P2, T = 1 h, 80 μg/kg s.c.): 1.48 fold
- BFU-E methylcellulose culture fold change from T=0 ([3]; P3, T = 1 h, 80 μg/kg s.c.): 2.30 fold
- CFU-GM methylcellulose culture fold change from T=0 ([3]; P3, T = 1 h, 80 μg/kg s.c.): 3.70 fold
- CFU-GEMM methylcellulose culture fold change from T=0 ([3]; P3, T = 9 h, 80 μg/kg s.c.): 2.47 fold
- CFU-GEMM methylcellulose culture fold change from T=0 ([3]; P3, T = 24 h, 80 μg/kg s.c.): 0.69 fold
- BFU-E methylcellulose culture fold change from T=0 ([3]; P4, T = 3 h, 80 μg/kg s.c.): 2.60 fold
- CFU-GEMM methylcellulose culture fold change from T=0 ([3]; P4, T = 6 h, 80 μg/kg s.c.): 9.10 fold
- BFU-E methylcellulose culture fold change from T=0 ([3]; P4, T = 24 h, 80 μg/kg s.c.): 0.79 fold
- CFU-GEMM methylcellulose culture fold change from T=0 ([3]; P4, T = 24 h, 80 μg/kg s.c.): 0.98 fold
- CFU-GEMM methylcellulose culture fold change from T=0 ([3]; P5, T = 3 h, 80 μg/kg s.c.): 4.43 fold
- CFU-GM methylcellulose culture fold change from T=0 ([3]; P5, T = 3 h, 80 μg/kg s.c.): 8.40 fold
- BFU-E methylcellulose culture % CHG ([3]; T = 1 h, mean of five donors, 80 μg/kg s.c.): 98.9%
- time of maximal fold increases in circulating levels of progenitor cells ([3]; after injection, all five donors): 6 h
- CFU-GM agar culture fold change from T=0 ([4]; P4, T = 24 h): 1.30 fold
- CFU-GM agar culture fold change from T=0 ([4]; P5, T = 3 h): 6.40 fold
- CFU-GM agar culture fold change from T=0 ([4]; P5, T = 24 h): 2.20 fold
- mobilization of progenitor cells in combination with mu MIP-1α [5]: additive to greater than additive
- PBL-LD nucleated cellularity Fold Change Compared to TIME = 0, MEAN [6]: 2.86 fold
- PBL-US nucleated cellularity Fold Change Compared to TIME = 0, MEAN [6]: 2.80 fold
- peak increase in circulating CD34+ progenitor/stem cells [7]: 6 fold
- cardiac remodeling and scar formation [8]: block to cardiac remodeling and scar formation
- mobilization of bone marrow stem cells [8]: mobilizes bone marrow stem cells rapidly
- regeneration of myocardium [8]: regeneration of the dead myocardium
- WBC count [9]: 17,000 / μl
